Reference: PubChem BioAssay AID2005 (Sanford-Burnham Center for Chemical Genomics, 2009)
Activity calls are given as the source filed them.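 Rule for the calls: active = plate Z score at or below -3, or inhibition of at least 30% at 20 µM; inactive = the rest.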

Assay: compounds lowering EGFP fluorescence in F442A cells, dose response, counter-screen for p/CIP destabilizer project (AID 2005);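 note: cells express EGFP alone from a CMV promoter as a counter screen for p/CIP-EGFP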
Conditions: F442A EGFP cells, EGFP fluorescence, 16 h, stronger effect = higher value

Row | SMILES | inhibition (EGFP decrease, at 10 µM) [%] | inhibition (at 20 µM)
1 | CCCC(=O)c1c[nH]c(C(=O)NCCc2ccccn2)c1 | 20.5 | 29.1% (inactive)
2 | COC(=O)c1cc(NC(=O)CSc2nc(C)cc(=O)[nH]2)cc(C(=O)OC)c1 | 9.8 | 23.4% (inactive)
3 | CC(CN1CCOCC1)OC(=O)C(C)(c1ccccc1)c1ccccc1 (stereo not drawn) | -14.9 | -4.6% (inactive)
4 | Cc1ccc(N2C(=O)N(CC(=O)Nc3ccc(C)cc3C)C(=O)C2C)cc1 (stereo not drawn) | 28.1 | 22% (inactive)
5 | O=c1ccn(Cc2ccccc2Cl)cc1 | 33.3 | 14.1% (inactive)
6 | Cc1ccccc1NC(=O)C1CCCN(C(=O)Nc2ccc(F)cc2)C1 (stereo not drawn) | 12.3 | 3.2% (inactive)
7 | CN(C)N=C1c2cc(S(=O)(=O)N(C)C)ccc2-c2ccc(S(=O)(=O)N(C)C)cc21 | 2.3 | 6.6% (inactive)
8 | Nc1ccc2nc(-c3ccc(-c4nc5ccc(N)cc5[nH]4)cc3)[nH]c2c1 | 15.4 | 25% (inactive)
9 | C=CCN(c1ccccc1)S(=O)(=O)c1ccc(Cl)c(C(=O)OCC(=O)NCCCN2CCCC2=O)c1 | 16.8 | 14.2% (inactive)
10 | CC(=O)NCCNC(=O)c1ccc(CSc2nc3ccccc3s2)cc1 | 15.9 | 16.6% (inactive)
11 | Fc1ccc(CNCCc2ccccc2)cc1 | 21.5 | -9.1% (inactive)
12 | COc1cccc(-c2noc(-c3ccc(Cl)nc3)n2)c1 | -8.2 | -3.6% (inactive)
13 | Cc1noc(C)c1COC(=O)CNC(=O)c1cccc(F)c1 | 4 | -7.3% (inactive)
14 | CC1CC(C)CN(C(=O)c2ccc3c(c2NCCO)C(=O)c2ccccc2C3=O)C1 (stereo not drawn) | 12.8 | 7.9% (inactive)
15 | COc1ccc(S(=O)(=O)Nc2cccc(-n3cnnn3)c2)cc1OC | 6.4 | 6.9% (inactive)
16 | N#Cc1cn(CC(=O)NCCc2c[nH]c3ccccc23)c2ccccc12 | 10.9 | -0.3% (inactive)
17 | C[C@@H](CN1C2=NC[C@H](Cc3ccc(O)cc3)N2C[C@H]1Cc1ccc(O)cc1)NC(=O)CCC1CCCCC1 | 19.4 | 28.8% (inactive)
18 | O=C(Nc1cccc(-c2csc(Nc3ccc(Cl)cc3)n2)c1)c1cc([N+](=O)[O-])cc(C(F)(F)F)c1 | 32.2 | 21.2% (inactive)
19 | CCCc1sc(N/N=C/c2ccccn2)nc1-c1ccc(F)cc1 | 20.3 | 20.4% (inactive)
20 | Cc1noc(C)c1CSc1nnc(C)c(=O)[nH]1 | -9.8 | -3.4% (inactive)
21 | O=C(Nc1cccnc1)c1ccc(Cl)c(S(=O)(=O)N2CCCCCC2)c1 | 28.5 | -6.9% (inactive)
22 | CCOCCCNC(=O)c1cc2c(=O)n3cccc(C)c3nc2s1 | -2.1 | 12.9% (inactive)
23 | CCc1c(C)nc(SCC(=O)Nc2cccc(Br)c2)[nH]c1=O | 35.5 | 12.1% (inactive)
24 | COC(=O)c1cccc(C23CC4(C2)[C@H](CN(C)[C@@H]4c2ccccc2)C3c2ccc(C(F)(F)F)cc2)c1 (stereo partly drawn) | 8 | 8.1% (inactive)
25 | COC(=O)COc1ccc(Oc2nc(SC)nc(N(C)C)n2)nn1 | 34.2 | 29.7% (inactive)
26 | C=CCc1cccc2cc(C(=O)NC)c(=O)oc12 | 12.9 | 30.8%
27 | CCOC(=O)c1c(C)n(C)c2cc(OCCN(CC)CC)ccc12 | -6 | 8.6% (inactive)

Row | SMILES | inhibition (EGFP decrease, at 10 µM) [%] | inhibition (at 20 µM)
28 | Cc1ccc2[nH]c3c(c2c1)CCCC3=O | 28.5 | 27.9% (inactive)
29 | CCCCC(=O)NC(c1ccccc1Cl)c1ccc2cccnc2c1O (stereo not drawn) | 3.1 | -6.1% (inactive)
30 | Cc1ccc(S(=O)(=O)NCC(C)NS(=O)(=O)c2ccc(C)cc2)cc1 (stereo not drawn) | 34.7 | -7.7% (inactive)
31 | CCC1=[N+]([O-])C(C)(/C(C)=N\O)N(O)C1(C)C (stereo not drawn) | -2.6 | -11% (inactive)
32 | Cc1ccc(-c2nnc(CSc3nc(C)nc4sc(C)c(C)c34)o2)cc1 | 12.1 | 14.3% (inactive)
33 | COc1ccccc1CN1CC(C(=O)NCc2cc(F)cc(C(F)(F)F)c2)CCC1=O (stereo not drawn) | 4.7 | 12.5% (inactive)
34 | COC(=O)Cn1cc(C(=O)c2cccs2)c2ccccc21 | 27.1 | 14.5% (inactive)
35 | CCOc1ccc(-c2c[n+]3c(n2-c2ccccc2)CCCCC3)cc1 | 32.2 | 51.3%
36 | CCCc1nc(NCC2CCCO2)c2nnn(Cc3ccccc3)c2n1 (stereo not drawn) | 39 | 12.1% (inactive)
37 | COc1ccc(CC(=O)OC(C)C(=O)c2ccc(C)cc2)cc1 (stereo not drawn) | 32 | 25.4% (inactive)
38 | c1ccc(C2CC3CC4(CCCC4)N2O3)cc1 (stereo not drawn) | 17.2 | -10.7% (inactive)
39 | O=C1NC(Cc2c[nH]c3ccccc23)C(=O)N1CCOc1ccc(F)cc1 (stereo not drawn) | 11.9 | 9.1% (inactive)
40 | CCOC(=O)N1CCC(NC(=O)Cn2nc(-c3ccccc3)ccc2=O)CC1 | 1.1 | 24.5% (inactive)
41 | CCOc1ccc(N(CC(=O)N2CCOCC2)S(=O)(=O)c2ccc(Cl)cc2)cc1 | 12.8 | 14.1% (inactive)
42 | CC(C)(C)n1nc2c(c1NC(=O)c1cc(Cl)ccc1[N+](=O)[O-])CS(=O)(=O)C2 | 10.5 | 22.6% (inactive)
43 | Cc1cc(C(=O)Nc2cccc(O)c2)c(C)o1 | 7.4 | -9.8% (inactive)
44 | CC(=O)c1cccc(N2Cc3ccccc3C2=NC(=O)CCl)c1 | 13.9 | 7.4% (inactive)
45 | O=C(COC(=O)COc1ccccc1)NCc1ccccc1 | 16.3 | 11.3% (inactive)
46 | COc1ccc(OC)c(Nc2cc(C)c3ccccc3n2)c1 | 13.3 | 5.4% (inactive)
47 | O=C(c1ccccc1)N1CCN(C(=O)c2cc3ccccc3o2)CC1 | 8.7 | 17.1% (inactive)
48 | Cc1ccc(C2C(C#N)=C(N)Oc3cc4c(cc32)OCO4)cc1 (stereo not drawn) | 15.9 | 18.9% (inactive)
49 | O=C(O)[C@@H]1CCCN1c1ncnc2sc3c(c12)CCC3 | 0.9 | 31.1%
50 | Cc1cc2nnc(SCC(=O)N3CCOCC3)n2c2ccccc12 | 26.4 | 17.9% (inactive)
51 | CC(C)CC(=O)Nc1ncnc2c1C(=O)CC(C)(C)C2 | 11.5 | 12.2% (inactive)
52 | Cc1cc(C(=O)Nc2cccc(C)c2C)n(-c2ccccc2)n1 | -4.4 | 5.5% (inactive)
53 | CCNS(=O)(=O)c1ccc(OC)c(C(=O)NC2CCCCC2)c1 | 1.8 | 27.8% (inactive)
54 | COc1ccccc1-c1cn[nH]c(=S)n1 | 24.4 | 8.7% (inactive)

Row | SMILES | inhibition (EGFP decrease, at 10 µM) [%] | inhibition (at 20 µM)
55 | Cc1cc(C)nc(Sc2ccc3nnc(C(F)(F)C(F)(F)C(F)(F)F)n3n2)n1 | 40.7 | 15.9% (inactive)
56 | O=C(c1ccc(F)cc1)C1CCN(C(=O)c2c(F)cccc2F)CC1 | 12.9 | 13.5% (inactive)
57 | COC(=O)CSc1[nH]c(=O)cc(C)c1C#N | 26.6 | 49.5%
58 | COc1ccc(CCNC(=O)C2CCN(S(=O)(=O)c3cccs3)CC2)cc1OC | 34.9 | 25.1% (inactive)
59 | O=C1c2ccccc2C(=O)C1c1ccc2ccccc2n1 | 1.9 | -11.6% (inactive)
60 | Cc1ccc(NC(=S)NC(NC(=O)c2ccco2)C(Cl)(Cl)Cl)cc1 (stereo not drawn) | 6.3 | 31.9%
61 | CC1CC(C)CN(C(=O)C2CCN(S(=O)(=O)c3cccs3)CC2)C1 (stereo not drawn) | 1.5 | 8.5% (inactive)
62 | COC(=O)c1sc(NC(=O)CSc2nnnn2-c2cccc(OC)c2)nc1C | 34.2 | 13.2% (inactive)
63 | CC1CN(C(=O)c2cn3ccccc3n2)CC(C)O1 (stereo not drawn) | 9.8 | 22.5% (inactive)
64 | Cc1cc(CN(C)C(=O)c2ccc3nc(Cc4ccccc4F)oc3c2)on1 | 21.3 | 8.5% (inactive)
65 | Cc1ccc2c(COC(=O)CNC(=O)c3ccccc3)cc(=O)oc2c1 | 5.9 | -2.9% (inactive)
66 | O=C(c1ccccc1)N1CCCC(c2nc3c(nnn3Cc3ccccc3)c(=O)[nH]2)C1 (stereo not drawn) | 32.3 | 16.2% (inactive)
67 | COc1cccc(CNC(=O)C2CCN(c3cnccn3)CC2)c1 | -0.8 | 8.6% (inactive)
68 | Cc1c(N=NC2=C(O)CCCC2=O)c(=O)n(-c2ccccc2)n1C | 6.5 | 21.3% (inactive)
69 | O=S(=O)(NCc1cn2ccccc2n1)c1cccs1 | 8.4 | -3.1% (inactive)
70 | Fc1ccc(NC(=S)NCc2cccnc2)cc1 | 28.3 | 8.7% (inactive)
71 | CCNc1nc(C)c2cc(Br)c(=O)n(CC)c2n1 | 18.2 | 4.8% (inactive)
72 | S=C(NNC(=S)Nc1ccccc1)Nc1ccccc1 | -6.9 | 16.7% (inactive)
73 | COC(=O)c1[nH]c2c(c1C)C(=O)CC(c1cccs1)C2 (stereo not drawn) | 16.8 | -4.5% (inactive)
74 | C[C@@H](C(=O)N1CCN(C(=O)OC(C)(C)C)CC1)n1cc(-c2cn([C@@H](C)C(=O)N3CCN(C(=O)OC(C)(C)C)CC3)nn2)nn1 | 38.2 | 25.3% (inactive)
75 | COCCn1c(SCC(=O)Nc2cc(C)on2)nnc1C(C)C | -1.7 | 0.9% (inactive)
76 | O=C(NC(=S)NCc1ccccc1)c1ccc(Br)o1 | 23.8 | 19.8% (inactive)
77 | COC(=O)c1ccc(-c2ccc(CNCC(O)c3ccccc3)o2)cc1 (stereo not drawn) | 8.8 | 7.1% (inactive)
78 | O=[N+]([O-])c1ccc(-c2nnc(CNC3CCCC3)o2)cc1 | 17.3 | 25.1% (inactive)
79 | CC(C)=CC(=O)Nc1ccccc1Br | 26.1 | 12.9% (inactive)
